From the supplement of paper PMC10307832 come the findings set out here.

Experiment in all cases: relative viability (nuclei count vs DMSO), 5 days (fraction); higher = more cells survive
Compound in the test “Mirin + Vorinostat”: N=C1NC(=O)/C(=C/c2ccc(O)cc2)S1 [Mirin] + O=C(CCCCCCC(=O)Nc1ccccc1)NO [Vorinostat] (partner 1 µM)
An outline of the steps: (§1)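 Nuclei were stained with Hoechst during a one-step fixation (final 0.05% Triton X-100, 1% formaldehyde, 1 ug/ml Hoechst) carried out 5 days after dosing, then counted on 4× images. The cells, lung cancer lines in 1536-well plates, had been dosed by pin tool the day after seeding with one drug alone or a fixed anchor-drug dose plus five library-drug doses (not always all listed) in √10 steps. Relative viability is the nuclei count in treated wells divided by that in vehicle wells, and each value is the median of duplicate plates.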

Compound in test [1]: CCC1=CN=CN=C1N2CCN(CC2)CC3=NC4=C(N3)C=C(C=C4)C(F)(F)F + CC(=O)c1c(C)c2cnc(Nc3ccc(N4CCNCC4)cn3)nc2n(C2CCCC2)c1=O [Palbociclib] (partner 0.5 µM)
Summed up: as §1

Compound in the test “Mirin + Pictilisib”: N=C1NC(=O)/C(=C/c2ccc(O)cc2)S1 [Mirin] + CS(=O)(=O)N1CCN(Cc2cc3nc(-c4cccc5[nH]ncc45)nc(N4CCOCC4)c3s2)CC1 [Pictilisib] (partner 1 µM)
Summed up: as §1

Compound in test [2]: CCn1c(-c2nonc2N)nc2cnc(Oc3cccc(NC(=O)c4ccc(OCCN5CCOCC5)cc4)c3)cc21 + Nc1ncn([C@H]2C[C@H](O)[C@@H](CO)O2)c(=O)n1 [Decitabine] (partner 2 µM)
Summed up:
as §1

As to UMC-11, the relative viability with Mirin + Vorinostat (first compound 0.25 µM) was 0.411; in the test with Mirin + Vorinostat (first compound 0.7906 µM), 0.362; with Mirin + Vorinostat (first compound 2.5 µM), 0.399; in the test with Mirin + Vorinostat (first compound 7.906 µM), 0.305; with Mirin + Vorinostat (first compound 25 µM) it was 0.266; in test [1] (first compound 0.04 µM), 0.331. Moreover, the relative viability in test [1] (first compound 0.1265 µM) was determined as 0.315; in test [1] (first compound 0.4 µM), 0.306; in test [1] (first compound 1.265 µM) it was 0.221; in test [1] (first compound 4 µM) it was 0.257; with Mirin + Pictilisib (first compound 0.25 µM), 0.798; in the test with Mirin + Pictilisib (first compound 0.7906 µM), 0.164. Moreover, the relative viability in the test with Mirin + Pictilisib (first compound 2.5 µM) was 0.849; in the test with Mirin + Pictilisib (first compound 7.906 µM), 0.509; in the test with Mirin + Pictilisib (first compound 25 µM), 0.4; in test [2] (first compound 0.04 µM) it was 0.596; in test [2] (first compound 0.1265 µM), 0.528; in test [2] (first compound 0.4 µM), 0.423. In addition, the relative viability in test [2] (first compound 1.265 µM) was found to be 0.125; in test [2] (first compound 4 µM) it was 0.269.
